Results on five compounds are retold here after patent US4423063A, “2,4-Dioxo-4-substituted-1-butaoic acid derivatives useful in treating urinary track calcium oxalate lithiasis” (Merck & Co., Inc., priority 1982, dated 1983).

As usually defined, the IC50 is the point on the concentration scale where inhibition reaches its midpoint. A high value points to weaker potency in that assay.

The assay concerns the target T1, pig liver glycolate oxidase (Sus scrofa, UniProt I3LVF1).
T1 construct: The enzyme was pig liver glycolate oxidase; from tissue; host or cells: pig liver
T1 sequence (I3LVF1 1-370): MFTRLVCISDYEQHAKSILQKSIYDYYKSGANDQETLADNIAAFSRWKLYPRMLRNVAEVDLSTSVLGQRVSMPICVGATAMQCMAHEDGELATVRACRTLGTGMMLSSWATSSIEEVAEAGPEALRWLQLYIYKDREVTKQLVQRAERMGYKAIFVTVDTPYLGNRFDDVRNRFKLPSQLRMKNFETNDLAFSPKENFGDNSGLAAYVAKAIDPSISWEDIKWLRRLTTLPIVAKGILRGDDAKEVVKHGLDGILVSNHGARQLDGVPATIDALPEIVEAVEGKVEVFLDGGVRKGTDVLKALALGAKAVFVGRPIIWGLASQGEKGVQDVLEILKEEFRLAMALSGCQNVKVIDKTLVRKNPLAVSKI
In words: Glycolate oxidase enzyme inhibition. Type of assay: biochemical. The settings on record: 25° C., 0.10 M phosphate buffer pH 7.0, 3 mM EDTA, 2×10^-4 M sodium glycolate. As to the method:
The usefulness of the compounds of the present invention in treating urinary tract, especially renal, calcium oxalate lithiasis, is shown by the ability of those compounds to inhibit the glycolate oxidase enzyme. […] The activity of the enzyme, in turn, was measured by following the rate of reduction of sodium 2,6-dichlorophenol-indophenol by sodium glycolate in the presence of the enzyme. The enzyme was pig liver glycolate oxidase. The reaction was followed spectrophotometrically at 600 nm. The assay was conducted at 25° C. in a 0.10 M phosphate buffer, pH 7.0, containing 3 mM EDTA. Initial substrate concentrations were 5×10^-5 M of sodium 2,6-dichlorophenol-indophenol and 2×10^-4 M of sodium glycolate. Reactions were initiated by the addition of enzyme. Initial rates during the period from 1 to 3 min. after the addition of enzyme were recorded on a Beckman Acta M-VI spectrophotometer. One control was run simultaneously with three test reactions and all initial rates were adjusted to a common control rate. For further details of this procedure, see Randall et al., J. Med. Chem., 22, 6, 612 (1979).

For `O=C(O)C(=O)CC(=O)c1ccc(-c2ccc(SCCc3ccncc3)cc2)cc1` [4-[[4'-[2-(4-Pyridinylethyl)thio]-1,1'-biphenyl]-4-yl]-2,4-dioxo-1-butanoic acid], it took 90 nM to reach half-maximal inhibition (IC50).

Regarding `O=C(O)C(=O)CC(=O)c1ccc(-c2ccc(SCc3ccccc3)cc2)cc1` [4-[[4'-[(Phenylmethyl)thio]-1,1'-biphenyl]-4-yl]-2,4-dioxo-1-butanoic acid], the IC50 was found to be 420 nM.

The compound `O=C(O)C(=O)CC(=O)c1ccc(-c2ccc(SCC3(O)COc4ccccc4OC3)cc2)cc1` [4-[[4'-[(3,4-dihydro-3-hydroxy-2H-1,5-benzodioxepin-3-yl)methylthio]-1,1'-biphenyl]-4-yl]-2,4-dioxo-1-butanoic acid] came in with an IC50 of 62 nM.

On to `O=C(O)C(=O)CC(=O)c1ccc(-c2ccc(S)cc2)cc1` [4-[(4'-Mercapto-1,1'-biphenyl)-4-yl]-2,4-dioxo-1-butanoic acid], for which the IC50 was determined as 2100 nM.

Take `CSc1ccc(-c2ccc(C(=O)CC(=O)C(=O)O)cc2)cc1` [4-[(4'-Methylthio-1,1'-biphenyl)-4-yl]-2,4-dioxo-1-butanoic acid]: the midpoint of inhibition (unit inferred), the IC50, lay at 150 nM.
